This is an account of results in PubChem BioAssay (NCI).

The structures appear in SMILES notation.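 Step 1: Grow cells in 96-well plates. Step 2: Expose to compound for 48 hours at 5 concentrations. Step 3: Interpolate endpoints linearly; if unreached, use highest concentration. TGI: concentration producing complete growth inhibition.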 Some results are limits rather than exact numbers.

Holding throughout (assay): NCI anticancer screen, dose series, 48 h
Assay [1] relates to 786-0 renal.
Assay [2] deals with A498 renal.
Assay [3] has as its system EKVX NSCLC.
For assay [4], the system named is HCT-116 colon.
Assay [5] relates to HOP-62 NSCLC.
In assay [6] the test system is KM12 colon.
The subject of assay [7] is MALME-3M melanoma.
For assay [8], the system named is NCI-H226 lung.
The test system of assay [9] is NCI-H522 lung.
For assay [10], the system named is OVCAR-4 ovarian.
In assay [11] the test system is RXF 393 renal.
Assay [12] relates to SF-268 CNS.
The subject of assay [13] is SF-295 CNS.
The test system of assay [14] is SK-MEL-2 melanoma.
For assay [15], the system named is SK-MEL-28 melanoma.
In assay [16] the test system is SW-620 colon.
Assay [17] deals with UO-31 renal.
Assay [18] concerns CAKI-1 renal.

For `C[N+](C)(C)CC1CCC/C1=N\OC(=O)c1ccccc1` (centres undefined), the TGI in [1], in assay [2], in assay [3], in assay [4], in assay [5] and in assay [6] was > 100 µM each time. In addition, the TGI in assay [7], in assay [8], in assay [9], in assay [10], in assay [11] and in assay [12] was > 100 µM in each case. Moreover, the TGI in assay [13], in assay [14], in assay [15], in [16] and in [17] was > 100 µM throughout.

For the compound `COc1ccc(C(C#N)NNC(=O)Cc2ccccc2)cc1OC` (centres undefined), the TGI in [1], in [18], in [4], in [5], in [6] and in [7] was > 100 µM in each case. Further, the TGI in assay [8], in assay [9], in assay [10], in assay [11], in [12] and in assay [13] was > 100 µM throughout. For the same compound, the TGI in assay [14], in assay [15], in [16] and in assay [17] was > 100 µM throughout.

As to `COc1ccc(/C=C(\C(C)=O)C(=O)Nc2ccccc2)cc1`, the TGI in [1], in assay [18], in assay [3], in [4], in assay [5] and in [6] was > 100 µM throughout. Further, the TGI in assay [7], in assay [8], in assay [9], in assay [10], in [11] and in assay [12] was > 100 µM in each case. The TGI in assay [13], in assay [14], in [15], in assay [16] and in assay [17] was > 100 µM each time.

For `CC(Oc1ccc(OCC2CCCCC2)cc1)C(=O)OCC(=O)c1ccc(-c2ccccc2)cc1` (centres undefined), the TGI in assay [1], in assay [2], in assay [4], in [6], in assay [7] and in assay [8] was > 100 µM throughout. The TGI in assay [9], in assay [10], in [11], in assay [12], in assay [13] and in assay [14] was > 100 µM each time. For the same compound, the TGI in assay [15] and in assay [17] was > 100 µM each time.

In the case of `Cn1cnnc1Sc1c([N+](=O)[O-])ncn1C`, the TGI in assay [1], in assay [2], in assay [18], in [3], in assay [4] and in assay [5] was > 100 µM in each case. Also, the TGI in assay [6] was > 100 µM; in assay [7], 46.1 µM; in [8], > 100 µM; in assay [9], 25.6 µM; in [10], > 100 µM; in [12], > 100 µM. For the same compound, the TGI in [13], in assay [14], in assay [15], in assay [16] and in assay [17] was > 100 µM each time.

On to `CCOC(=O)/C(=C/c1ccc(N(C)C)cc1)N(CC)CC`, for which the TGI in assay [1], in assay [18], in assay [3], in [4], in assay [5] and in assay [6] was > 100 µM throughout. Besides, the TGI in assay [7] was > 100 µM; in [8], 94.2 µM; in assay [9], > 100 µM; in assay [10], > 100 µM; in [12] it was > 100 µM; in assay [13] it was > 100 µM. The TGI in assay [14], in assay [15], in assay [16] and in assay [17] was > 100 µM in each case.

Regarding `C=C(C)C1CCC2(C)CC1c1c(c(C)cc3c1[nH]c1ccccc13)O2` (centres undefined), the TGI in [1], in assay [4], in [5], in [6], in [7] and in assay [8] was > 25 µM each time. Besides, the TGI in assay [9], in assay [10], in assay [12], in assay [14], in assay [15] and in assay [16] was > 25 µM in each case. Besides, the TGI in [17] was > 25 µM.

As for `COC(=O)[C@@]1(C)/C(=N/NS(=O)(=O)c2ccc(C)cc2)CCC[C@@H]1C`, the TGI in assay [1], in [2], in assay [18], in [3], in assay [4] and in assay [5] was > 100 µM in each case. The TGI in [6], in assay [7], in assay [8], in assay [9], in assay [10] and in assay [11] was > 100 µM each time. Also, the TGI in [12], in assay [13], in assay [14], in [15] and in assay [17] was > 100 µM throughout.

As for `COc1ccc(OC)c(/C=C(/C#N)c2ccccc2)c1`, the TGI in [1] was > 100 µM; in assay [2] it was 83.8 µM; in assay [18] it was > 100 µM; in assay [3], > 100 µM; in assay [4], > 100 µM; in [5] it was > 100 µM. Further, the TGI is > 100 µM in [6]; > 100 µM in assay [7]; > 100 µM in [8]; 45.5 µM in assay [9]; 81.5 µM in assay [10]; 38.7 µM in [11]. Moreover, the TGI was > 100 µM in [12]; > 100 µM in assay [13]; 54.7 µM in assay [14]; > 100 µM in [15]; > 100 µM in assay [16].
